In patent publication US5223526A, “Pyrazole carboxanilide fungicides and use” (Monsanto Company, priority 1992, dated 1993):
Like-named read-outs stand apart in the source and are kept apart here.

Assays:
[1] = test system: Botrytis cinerea; experiment: Eggplant grey mold; type: in vivo; design: scale not given here; conditions: inoculated 24 h later, rated after 3-4 days; for Disease Control Rating at 20 ppm: eggplant sprayed with 20 ppm; for Disease Control Rating at 100 ppm: eggplant sprayed with 100 ppm; for Disease Control Rating at 500 ppm: eggplant sprayed with 500 ppm
Method in brief: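 Protective test: compound formulations (2:3 acetone:water, 0.5% Tween 20; 500, 100 or 20 ppm) sprayed on 14-18-day-old plants, with spore inoculum (4×10^6 spore/mL) applied a day later. Disease control rated on Botrytis lesions after 3-4 days at 23 °C and 100% humidity.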

[2] = test system: Rhizoctonia solani; experiment: Rice sheath blight; type: in vivo; design: scale not given here; conditions: inoculated two days later, rated after 7 days, average of five plants; for Disease Control Rating at 0.02 mg/mL: foliage and soil sprayed with 0.02 mg/mL; for Disease Control Rating at 0.1 mg/mL: foliage and soil sprayed with 0.1 mg/mL; for Disease Control Rating at 0.5 mg/mL: foliage and soil sprayed with 0.5 mg/mL
Method in brief: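 Rice plants 11–15 days old had foliage and soil sprayed with 0.5, 0.1 or 0.02 mg/mL Compound A in water/acetone/Tween 20, then kept in flooded trays. Two days later, rice-grain Rhizoctonia solani inoculum went to plant bases; disease control scored versus untreated after 7 days at 25 °C, high humidity, averaging five plants.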

[3] = test system: Botrytis cinerea; experiment: Vine grey mold (grape berries); type: in vivo; conditions: average of six berries, 7-10 days; for pest or weed control at 50 ppm: grape berries treated with 50 ppm, read-out: % DISEASE CONTROL 50 ppm; for pest or weed control at 200 ppm: grape berries treated with 200 ppm, read-out: % DISEASE CONTROL 200 ppm
Method in brief: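 Preventive berry test: compound at 50 or 200 ppm (acetone/water, 0.05% Tween 20) applied one day before inoculation with 10^6 spores/mL Botrytis conidia. After 7-10 days at 20 °C under 12 h light, infected surface area rated; disease control expressed as percent reduction from control mean; repeated-test values averaged.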

[4] = target: T1, succinate dehydrogenase (Botrytis cinerea, UniProt A0A384J5E4+A0A384J8V8+A0A384JHJ5); experiment: Enzyme inhibition: succinate dehydrogenase activity in Botrytis cinerea mitochondria (DCPIP reduction); type: biochemical
T1 construct: succinate-DCPIP reductase assay with KCN
Method in brief: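 Crude mitochondria from Botrytis cinerea isolate Nick mycelia, prepared by bead-beating and differential centrifugation, started reactions. SDH activity followed as DCPIP reduction at 600 nm in 50 mM K-phosphate pH 7.2 with 1 mM KCN, 45 μM DCPIP, 17 mM succinate, 1% acetone. I50 from semilog inhibition plots, corrected for succinate-free rates.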

[5] = concentration required to inhibit the rate of DCPIP reduction by 50%; Botrytis cinerea isolate Nick mitochondria; read-out: I50 (μM conc.)

T1 sequence (A0A384J5E4 1-300): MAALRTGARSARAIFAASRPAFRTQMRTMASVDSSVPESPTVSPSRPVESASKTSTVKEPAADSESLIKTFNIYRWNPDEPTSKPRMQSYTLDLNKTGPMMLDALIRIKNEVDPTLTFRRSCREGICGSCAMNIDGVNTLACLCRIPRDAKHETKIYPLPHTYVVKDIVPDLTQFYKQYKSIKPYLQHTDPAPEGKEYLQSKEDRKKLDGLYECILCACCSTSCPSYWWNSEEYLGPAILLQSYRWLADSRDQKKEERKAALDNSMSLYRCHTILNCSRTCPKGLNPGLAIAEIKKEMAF
T1 sequence (A0A384J8V8 1-189): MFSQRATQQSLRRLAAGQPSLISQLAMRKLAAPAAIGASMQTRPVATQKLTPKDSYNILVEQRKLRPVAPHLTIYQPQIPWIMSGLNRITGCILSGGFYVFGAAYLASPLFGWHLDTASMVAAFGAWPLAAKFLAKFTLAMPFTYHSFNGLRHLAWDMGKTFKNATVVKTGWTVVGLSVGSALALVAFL
T1 sequence (A0A384JHJ5 1-192): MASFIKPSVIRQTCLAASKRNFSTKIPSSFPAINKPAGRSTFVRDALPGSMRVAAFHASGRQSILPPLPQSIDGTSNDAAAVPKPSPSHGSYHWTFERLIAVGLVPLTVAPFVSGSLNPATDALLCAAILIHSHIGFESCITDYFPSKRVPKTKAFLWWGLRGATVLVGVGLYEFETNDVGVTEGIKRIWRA
T1 sequence (A0A384K456 1-647 partner): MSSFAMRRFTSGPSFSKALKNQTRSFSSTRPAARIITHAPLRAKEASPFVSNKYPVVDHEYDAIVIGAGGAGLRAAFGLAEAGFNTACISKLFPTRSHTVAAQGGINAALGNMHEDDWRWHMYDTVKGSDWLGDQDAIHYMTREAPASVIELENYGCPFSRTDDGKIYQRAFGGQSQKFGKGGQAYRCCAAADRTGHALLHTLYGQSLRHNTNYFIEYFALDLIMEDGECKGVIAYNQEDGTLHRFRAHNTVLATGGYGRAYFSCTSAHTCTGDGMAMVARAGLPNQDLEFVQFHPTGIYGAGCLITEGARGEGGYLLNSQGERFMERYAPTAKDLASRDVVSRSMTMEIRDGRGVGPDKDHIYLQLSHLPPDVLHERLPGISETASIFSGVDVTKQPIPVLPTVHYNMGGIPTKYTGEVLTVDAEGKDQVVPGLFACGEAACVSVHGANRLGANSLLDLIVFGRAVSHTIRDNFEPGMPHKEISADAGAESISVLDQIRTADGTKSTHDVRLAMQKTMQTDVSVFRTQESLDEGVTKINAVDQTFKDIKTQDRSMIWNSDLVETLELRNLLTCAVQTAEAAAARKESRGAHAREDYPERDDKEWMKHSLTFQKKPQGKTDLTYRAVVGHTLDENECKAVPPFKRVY

Compound | Disease Control Rating at 20 ppm [1] | Disease Control Rating at 100 ppm [1] | Disease Control Rating at 500 ppm [1] | Disease Control Rating at 0.02 mg/mL [2] | Disease Control Rating at 0.1 mg/mL [2] | Disease Control Rating at 0.5 mg/mL [2] | pest or weed control at 50 ppm [3] | pest or weed control at 200 ppm [3] | IC50 [4, 5] | IC50 ([4]; read-out: I50 (μM conc.); concentration required to inhibit the rate of DCPIP reduction by 50%; Botrytis cinerea isolate Nick mitochondria)
C[C@@H]1CCC[C@H](c2ccccc2NC(=O)c2cn(C)nc2C(F)(F)F)C1 (relative stereo) [Example 79, 1H-pyrazole-4-carboxamide, 1-methyl-N-[2-(3-methylcyclohexyl)phenyl]-3-(trifluoromethyl)-, cis-] | 0 | 1 | 2 | 3 | 3 | 3 | 69% | 97% | 0.011 µM | 
Cn1cc(C(=O)Nc2ccccc2C2=CC(C)(C)CC(C)(C)C2)c(C(F)F)n1 [Example 121, 1H-pyrazole-4-carboxamide, 3-(difluoromethyl)-1-methyl-N-[2-(3,3,5,5-tetramethyl-1-cyclohexen-1-yl)phenyl]-] | 0 | 0 | 1 | 1 | 3 | 3 | 33% | 64% | 0.0069 µM | 
C[C@@H]1CCC[C@H](C)[C@@H]1Oc1ccccc1NC(=O)c1cn(C)nc1C(F)(F)F [Example 74, 1H-pyrazole-4-carboxamide, 1-methyl-N-[2-[(2,6-dimethylcyclohexyl)oxy]phenyl]-3-(trifluoromethyl)-, (lalpha,2alpha,6alpha)-] | 0 | 0 | 1 |  |  | 0 | 4% | 0% | 0.09 µM | 
Cn1cc(C(=O)Nc2ccccc2CC2CCCCCC2)c(C(F)F)n1 [Example 145, 1H-pyrazole-4-carboxamide, 1-methyl-N-[2-(cycloheptylmethyl)-phenyl]-3-(difluoromethyl)-] | 0 | 0 | 0 |  |  | 3 | 0% | 0% | 0.025 µM | 
Cc1ccc(C2CCCCC2)c(NC(=O)c2cn(C)nc2C(F)(F)F)c1 [Example 18, 1H-pyrazole-4-carboxamide, N-(2-cyclohexyl-5-methylphenyl)-1-methyl-3-(trifluoromethyl)-] |  |  | 0 |  |  | 0 | 0% | 0% | 0.031 µM | 
Cn1cc(C(=O)Nc2ccccc2C2=CCCCCCC2)c(C(F)F)n1 [Example 119] | 0 | 1 | 2 |  |  | 2 | 73% | 84% |  | 0.0035 µM
Cc1c(C(=O)Nc2ccccc2C2CCCCCC2)c(Cl)nn1C [Example 105, 1H-py-razole-4-carboxamide, 3-chloro-N-(2-cycloheptylphenyl)-1,5-dimethyl-] | 0 | 0 | 1 |  |  | 0 | 6% | 0% | 0.26 µM | 
Cn1cc(C(=O)Nc2ccccc2OC2CCCCC2)c(C(F)(F)F)n1 [Example 23, 1H-pyrazole-4-carboxamide, N-[2-(cyclohexyloxy)phenyl]-1-methyl-3-(trifluoromethyl)-] |  |  | 0 | 1 | 2 | 3 | 20% | 66% | 0.01 µM | 
Cn1cc(C(=O)Nc2ccc(F)cc2C2(C)CCCCC2)c(C(F)F)n1 [Example 95, 1H-pyrazole-4-carboxamide, 3-(difluoromethyl)-N-[4-fluoro-2-(1-methylcyclohexyl)phenyl]-1-methyl-] |  |  | 0 |  |  | 0 | 48% | 26% | 0.64 µM | 
Cn1cc(C(=O)Nc2ccccc2CC2=CCCC2)c(C(F)F)n1 [Example 117, 1H-pyrazole-4-carboxamide, N-[2-(1-cyclopenten-1-ylmethyl)phenyl]-3-(difluoromethyl)-1-methyl-] | 0 | 1 | 2 |  |  | 0 | 80% | 19% | 0.17 µM | 
Cn1cc(C(=O)Nc2ccccc2C=C2CCCCC2)c(C(F)(F)F)n1 [Example 40, 1H-pyrazole-4-carboxamide, N-[2-(cyclohexylidenemethyl)phenyl]-1-methyl-3-(trifluoromethyl)-] | 0 | 0 | 1 |  |  | 0 | 2% | 3% | 0.079 µM | 
CSc1nn(C)cc1C(=O)Nc1ccccc1C1CCCCC1 [Example 39, 1H-pyrazole-4-carboxamide, N-(2-cyclohexylphenyl)-1-methyl-3-(methylthio)-] |  |  | 1 |  |  | 0 | 50% | 55% | 0.36 µM | 
Cn1cc(C(=O)Nc2ccccc2O[C@H]2CC[C@H](C)CC2)c(C(F)(F)F)n1 [Example 73, 1H-pyrazole-4-carboxamide, 1-methyl-N-[2-[(4-methylcyclohexyl)oxy]phenyl]-3-(trifluoromethyl)-, trans-] |  |  | 0 |  |  | 2 | 8% | 0% | 0.0076 µM | 
Cn1cc(C(=O)Nc2ccccc2C2=CCCC2(C)C)c(C(F)F)n1 [Example 122, 1H-pyrazole-4-carboxamide, 3-(difluoromethyl)-N-[2-(5,5-dimethyl-1-cyclopenten-1-yl)phenyl]-1-methyl-] | 1 | 2 | 2 |  |  | 0 | 67% | 79% | 0.034 µM | 
Cc1cc(C)c(C2CCCC2)c(NC(=O)c2cn(C)nc2C(F)(F)F)c1 [Example 31, 1H-pyrazole-4-carboxamide, N-(2-cyclopentyl-3,5-dimethylphenyl)-1-methyl-3-(trifluoromethyl)-] | 0 | 0 | 0 |  |  | 1 | 0% | 23% | 0.068 µM | 
Cc1ccc(OC2CCCCC2)c(NC(=O)c2cn(C)nc2C(F)F)c1 [Example 96, 1H-pyrazole-4-carboxamide, N-[2-(cyclohexyloxy)-5-methylphenyl]-3-(difluoromethyl)-1-methyl-] |  |  | 0 |  |  | 0 | 0% | 0% | 0.43 µM | 
Cc1c(C(=O)Nc2ccccc2C2CCCC2)c(C(F)(F)F)nn1C [Example 101, 1H-pyrazole-4-carboxamide, N-(2-cyclopentylphenyl)-1,5-dimethyl-3-(trifluoromethyl)-] |  |  | 0 | 0 | 1 | 3 | 10% | 16% | 1.4 µM | 
Cc1ccc(C2CCCCC2)c(NC(=O)c2cn(C)nc2C(F)F)c1 [Example 21, 1H-pyrazole-4-carboxamide, N-(2-cyclohexyl-5-methylphenyl)-3-(difluoromethyl)-1-methyl-] | 1 | 2 | 2 |  |  | 1 | 40% | 34% | 0.019 µM | 
